The values that follow come from ChEMBL document CHEMBL1157539, “Thousands of chemical starting points for antimalarial lead identification” (Nature, 2010).

The test concerns Plasmodium falciparum. Put plainly: GSK_TCMDC: Inhibition of Plasmodium falciparum 3D7 in whole erythrocytes, using parasite LDH activity as an index of growth. The test is classed as functional, organism-based. Particulars: Plasmodium falciparum, 3D7.
Take `Cc1[nH]c(C)c(-c2ccc(Oc3cccc(Cl)c3)cc2)c(=O)c1Cl`: the XC50 worked out at 0.0208 µM.
The result for `CN1CCN(CC(O)CNC(=O)Nc2ccc(Br)cc2)CC1` (stereo unspecified) reads 0.149 µM; that for `CCCCCCCN1CCC(NC(=O)Nc2ccnc3ccc(OC)cc23)C(CO)C1` (stereo unspecified), 0.176 µM.
In the case of `O=C(CCc1c[nH]cn1)Nc1cccc(-c2ccc(-c3nc4cc(F)ccc4[nH]3)s2)c1` it was 0.557 µM; in that of `O=C(NCCCN1CCCCC1)c1ccc(Nc2nccc(Nc3ccc(Oc4ccccc4)cc3)n2)cc1`, 0.626 µM; in that of `COc1ccc(NC(=O)[C@H](CC(C)C)Nc2cc(C)nc(NCc3cccc(C)c3)n2)cc1`, 1.02 µM.
The result for `CCCCCCc1cc2cc(-c3nc(-c4ccc(OC)cc4)cs3)c(=O)oc2cc1O` reads 0.816 µM; that for `Cc1ccc(Cc2cccc3nc(N)nc(N)c23)cc1`, 1.15 µM; that for `COc1ccc(CNC(=O)c2cnc3c(O)cccc3c2Nc2cccc(NC(=O)c3ccc(F)cc3)c2)cc1`, 0.996 µM.
`CCc1cn2c3c(cc(C(=O)N[C@@H](Cc4cc(F)cc(F)c4)[C@H](O)CNC4CCOCC4)cc13)N(C)S(=O)(=O)CC2` displayed an XC50 of 0.0336 µM.
In the case of `COc1ccc2nccc(NC(=O)C3(O)CCC(NCc4ncc5c(c4Cl)OCCO5)CC3)c2n1` (stereo unspecified) it was 0.254 µM; in that of `Cc1sc(NC(=O)c2ccc([N+](=O)[O-])cc2Cl)c(C(N)=O)c1C`, 0.931 µM; in that of `COc1ccc2c(=O)c(-c3ccc(OC(F)(F)F)cc3)c(C)[nH]c2c1`, 0.233 µM.
The molecule `COc1ccc(-c2cc3ncnc(N4CCN(CCN5CCCC5)CC4)c3s2)cc1` registered an XC50 of 0.831 µM.
`CC[C@H](C)CNC(=O)c1cncc(-c2cccc(CNC3Cc4ccccc4C3)c2)c1` returned an XC50 of 0.591 µM.
The result for `CC(=O)NCC(=O)NC1=NC(=N)N(OCc2ccc3ccccc3c2)C(C)(C)N1` reads 0.0032 µM.
In the case of `CN1CCN(CCCN(Cc2cccc(-c3ccc(CNCc4ccc5c(c4)OCO5)cc3)c2)C(=O)CCC2CCCC2)CC1` it was 1 µM; in that of `CC(=O)c1sc2ccccc2c1O`, 0.88 µM; in that of `Cc1ccc(N2C(=O)C3C(C2=O)C2(c4ccccc4)C(=O)C3(c3ccccc3)C(c3ccccc3)=C2c2ccccc2)cc1` (stereo unspecified), 0.869 µM.
In the case of `O=C1C(=Cc2c(O)ccc3ccccc23)SC(=NCc2ccccc2)N1Cc1ccccc1` it was 0.155 µM; in that of `O=C1c2ccccc2CN1CCCN1CCC(Oc2ccc(F)cc2)CC1`, 1.21 µM.
The molecule `CC(=NNc1nc2ccccc2s1)c1ccccn1` had an XC50 of 1.12 µM.
The result for `Cn1cc(CCNc2ccnc(N3CCC(c4ncc[nH]4)CC3)n2)c2ccccc21` reads 1.2 µM; that for `Brc1ccc(Nc2ccnc3cc(-c4nccs4)ccc23)cc1Oc1ccnc2cc(-c3nccs3)ccc12`, 1.06 µM; that for `Cc1cccc(OCCCCON2C(=N)N=C(N)NC2(C)C)c1C`, 0.0032 µM.
The result for `CCCCc1ccc2ncc(C(=O)OCC)c(O)c2c1` reads 0.632 µM; that for `Cc1cc(NCCC(=O)Nc2ccccc2)nc(NCCc2cccs2)n1`, 0.893 µM; that for `CC(C)CNC(=O)c1cncc(-c2cccc(CNC3Cc4ccccc4C3)c2)c1`, 0.786 µM.
The result for `N#Cc1ccc(N(CCOc2ccc(Cl)c(Cl)c2)Cc2ccccc2C(F)(F)F)cc1C(F)(F)F` reads 1.11 µM.
In turn, `CCNS(=O)(=O)c1ccc(Oc2ccc([N+](=O)[O-])cc2)cc1` registered an XC50 of 0.169 µM.
Consider `COc1ccc(NC(=O)Nc2cccc(-c3ccc(-c4nc5cccc(C)c5[nH]4)s3)c2)cc1`, for which the XC50 was determined as 0.671 µM.
In the case of `Cc1cc(Nc2ccc(C(C)(C)C)cc2)c2[nH]ncc2n1` it was 1.16 µM; in that of `CC(C)(C)c1ccc(NC(=O)c2ccc(CN3CCCN(Cc4cccc(C#N)c4)CC3)cc2)cc1`, 0.641 µM; in that of `COc1ccc(-c2csc3ncnc(Cl)c23)cc1OC`, 0.769 µM.
Regarding `CC(C)N1CCN(C(=O)c2ccc(CN(C)CCCN3CCN(c4cccc(Cl)c4Cl)CC3)s2)CC1`, the XC50 stood at 0.994 µM.
The result for `Cc1cc(N)c2cc(NC(=O)c3cccc4ccccc34)ccc2n1` reads 0.844 µM; that for `Nc1c2c(nc3ccc(NC(=O)CCCCCCc4ccccc4)cc13)CCCC2`, 0.248 µM.
The result for `OC(CNc1ccnc(Nc2ccccc2)n1)c1ccc(C(F)(F)F)cc1` (stereo unspecified) reads 0.606 µM.
Consider `CC1CN(c2cnn(C/C=C/c3ccc(NC(=O)c4ccc5nonc5c4)cc3)c(=O)c2Cl)CC(C)N1` (stereo unspecified), for which the XC50 is 0.786 µM.
The result for `N#Cc1ccc(C(=O)Nc2ccc(Cl)c(N3CCN(CCc4ccccc4)CC3)c2)cc1` reads 0.929 µM; that for `COc1cc(C(=O)N2N=C(c3c(-c4ccccc4)c4cc(Br)ccc4[nH]c3=O)CC2c2cccc([N+](=O)[O-])c2)cc(OC)c1OC` (stereo unspecified), 0.943 µM; that for `O=C(Nc1ccc(-c2ccc(-c3nc4ccccc4[nH]3)s2)cc1)Nc1ccc(Cl)c(Cl)c1`, 0.165 µM.
In the case of `COc1cc(Nc2nc(N)n(C(=O)c3ccc4c(c3)OCO4)n2)cc(OC)c1OC` it was 1.13 µM; in that of `CCC(NCc1ccc(-c2cncc(C(=O)NCC(C)C)c2)cc1)c1ccccc1` (stereo unspecified), 0.944 µM; in that of `COc1ccc2[nH]ccc(=NN=Cc3cccc(F)c3)c2c1`, 0.75 µM.
The result for `CCCCCCN1CCCN(Cc2cccc(NC(=O)c3cc4ccccc4s3)c2)CC1` reads 0.66 µM; that for `CN1CCN(CC(=O)Nc2ccc(-c3ccc(-c4nc5ccccc5[nH]4)s3)cc2)CC1`, 0.299 µM; that for `O=C(Nc1cccc(C(F)(F)F)c1)c1cccc(S(=O)(=O)NC2CCCN(CC3CCCCC3)C2)c1` (stereo unspecified), 0.857 µM.
`COc1ccc(CCn2c(=N)c(C(=O)NCc3cccnc3)cc3c(=O)n4cccc(C)c4nc32)cc1` registered an XC50 of 1.4 µM.
On to `N=C(NCCc1ccc(Cl)cc1)c1ccc(Cl)c(Cl)c1`, for which the XC50 was 1.1 µM.
In the case of `O=C(NC1CCCCC1)N(Cc1cccc(-c2cccc(CNC3CCCC3)c2)c1)C1CCN(Cc2ccccc2)CC1` it was 0.736 µM; in that of `CCCCNCc1ccc(-c2nc(CN(CCCn3ccnc3)C(=O)NC3CC3c3ccccc3)cs2)cc1` (stereo unspecified), 0.744 µM.
As for `COc1ccc(NC(=O)[C@H](Cc2ccccc2)Nc2cc(C)nc(NCCc3ccccc3OC)n2)cc1`, the XC50 came to 0.529 µM.
The result for `CCOC(=O)c1ccc(NC(=O)N[C@@H](Cc2ccccc2)C(=O)NC2CCN(Cc3ccc(OCCCN(C)C)cc3)C2)cc1` (stereo partly specified) reads 0.702 µM; that for `Cc1cccc2nc(-c3cccc(-c4cccc(NC(=O)CNC(=O)c5ccc(O)cc5)c4)c3)[nH]c12`, 0.99 µM.
In the case of `C=CCn1c(=N)c(C(=O)NCc2ccc(F)cc2)cc2c(=O)n3cccc(C)c3nc21` it was 1.17 µM.
The molecule `CC(=O)Nc1ccc(C(=O)Nc2cccc(-c3cccc(-c4nc5cc(C(F)(F)F)ccc5[nH]4)c3)c2)cn1` yielded an XC50 of 0.0737 µM.
In the case of `Fc1ccc(-c2cc3ncnc(N4CCN(CCN5CCCC5)CC4)c3s2)cc1`, the XC50 was 0.74 µM.
The result for `Cc1c(C)c2c(c(C)c1O)CC[C@@](C)(C(=O)N1CCC(CCN3CCC(c4c[nH]c5ccccc45)CC3)CC1)O2` reads 0.666 µM; that for `c1cn(CCCNc2ncc(-c3ccsc3)c(-c3nccs3)n2)cn1`, 0.646 µM.
Molecule `Cc1ccc2c(NC(=O)Nc3ccc(N(C)C)cc3)cc(C)nc2c1` displayed an XC50 of 0.82 µM.
The result for `Cn1cccc1CCNCc1ccc(-c2cccc(-c3nc4cc(F)ccc4[nH]3)c2)cc1` reads 1.22 µM; that for `O=C(Nc1cccc(CN2CCCN(Cc3ccc4c(c3)OCO4)CC2)c1)c1cc2ccccc2s1`, 0.99 µM.
For `CNC(=O)c1cnc(Nc2ccc(N3CCN(C)CC3)cc2)nc1Nc1cccc([N+](=O)[O-])c1`, the XC50 was 0.288 µM.
In the case of `O=C(Nc1ccccc1)N(Cc1cccc(-c2ccc(CNCc3ccc4c(c3)OCO4)cc2)c1)C1CCN(Cc2ccccc2)CC1` it was 0.325 µM; in that of `O=S(=O)(NCCN1CCCC1)c1ccc(-c2cccc(CNCc3ccsc3)c2)s1`, 0.896 µM; in that of `Cc1ccc(-c2ccc3c(c2)C=C(C(=O)NC2CCN(CCNC(=O)c4cccc(C(F)(F)F)c4)CC2)CCC3)cc1`, 0.512 µM.
In the case of `Cc1cc(N(C)CCN(C)C)nc(Nc2ccc(Br)cc2)n1` it was 0.801 µM; in that of `O=C(/C=C/c1ccc(Cl)cc1Cl)NCCCCCN1CCC(c2c[nH]c3ccccc23)CC1`, 0.941 µM; in that of `Cc1nc2c(-n3cc(Cn4ccnc4)c4ccccc43)ncnc2n1-c1ccc(Cl)cc1Cl`, 0.994 µM.
In the case of `Fc1ccc2[nH]c(-c3cccc(-c4cccc(CNCc5ccccc5)c4)c3)nc2c1`, the XC50 was 0.283 µM.
The result for `COc1cc2nc(NCCn3nc(C)cc3C)nc(NCCc3ccccc3)c2cc1OC` reads 0.436 µM; that for `COc1ccccc1CCNc1ncnc2c1[nH]c1ccc(F)cc12`, 0.837 µM.
The molecule `COCCOC(=O)C(=O)c1c(-c2ccccc2)c(-c2ccc(OC)c(OC)c2)c2c3cc(OC)c(OC)cc3ccn12` had an XC50 of 0.497 µM.
The result for `CC(C)C[C@H](NC(=O)[C@H](Cc1ccccc1)N(C[C@H](Cc1ccccc1)NC(=O)OC(C)(C)C)C(=O)C(F)(F)F)C(=O)NC1CCN(Cc2ccccc2)CC1` reads 0.53 µM; that for `CN1CCc2cc(NC(=O)c3cc4ccccc4s3)cc(-c3ccccc3)c2CC1`, 0.885 µM.
In the case of `COc1ccc(CCN2CC[C@H](Nc3nc(-c4ccc(F)c(F)c4)nc4ccccc34)C2)cc1S(N)(=O)=O` it was 0.789 µM; in that of `Cn1cnc2c(SCc3ccccc3OCc3ccccc3)ncnc21`, 0.922 µM; in that of `CCCc1cc(OC)c(CC2c3cc(O)c(C)cc3CCN2C)cc1OC` (stereo unspecified), 0.701 µM.
The result for `NC(=O)c1cccc(C(=O)Nc2cccc(-c3cccc(-c4nc5ccccc5[nH]4)c3)c2)c1` reads 0.548 µM; that for `CN(Cc1cccc(O)c1)C1CCCN(c2cc(NC(=O)c3ccc(F)cc3)ccn2)C1` (stereo unspecified), 1.07 µM.
For the molecule `CCc1ccc(N2C(=O)C3C(Cc4ccc(OC(C)(C)C)cc4)NC4(C(=O)N(Cc5ccccc5)c5ccc(F)cc54)C3C2=O)cc1` (stereo unspecified), the XC50 was found to be 0.8 µM.
In the case of `COc1ccc2nc(-c3ccc(F)cc3)cc([C@@H](O)[C@@H]3C[C@@H]4CCN3CC4C=NO)c2c1` (stereo partly specified) it was 0.248 µM; in that of `CCC1N=C(N)N=C(N)N1OCc1ccc(Cl)c(Cl)c1` (stereo unspecified), 0.00335 µM.
The result for `COc1ccc(CNc2nccc3ccc(-c4ccc(N)nc4)cc23)cc1` reads 0.979 µM; that for `Fc1ccc(-c2oc(C3CCN(CCc4ccc(-c5noc(=S)[nH]5)cc4)CC3)nc2COCC(F)(F)F)cc1`, 0.418 µM.
